Results from patent US6407058B1, “Modifying the permeability of physiological barriers” (Eisai Co., Limited, priority 1996, dated 2002).

Legend:
[1] = tested on: p100/p120; test: [32P]orthophosphate labelling and immunoprecipitation of p100/p120, MDCK I cells; type: cell-based
Experimental: PDB induces dephosphorylation of p100 and p120. We investigated the possibility that the altered pattern of migration during electrophoresis of p100 and p120 following treatment with PDB is due to a change in the phosphorylation state of these proteins. MDCK I cells were metabolically labelled with [^32P]orthophosphate, treated with or without 200 nM PDB, and the p100 and p120 isolated by immunoprecipitation with antibodies recognising p100 and p120. This immunoprecipitation was carried out under buffer conditions which removed any associated proteins from p100 and p120. Protein was separated by electrophoresis, transferred to nitrocellulose filters, and exposed to film (Example 6A). The greater the amount of radioactive phosphate incorporated into the protein, the greater the signal on the film. […] To normalise for slight differences in protein loading, the same filters were then probed with p100/p120 antibody, and the level of p100/p120 protein determined by densitometry. Thus, the amount of phosphate per unit protein could be calculated. […]
MDCK I cells grown to confluence on 24 mm filters were incubated overnight in phosphate-free MEM, containing 0.5% serum (dialysed against 0.9% NaCl and 10 mM Hepes (pH 7.5)) and 100 μCi/ml [^32P]orthophosphate (Amersham). […] Filters were then probed with p120 antibodies, and the resulting ECL exposure scanned in the same way, to quantify protein loading.

[2] = tested on: E-cadherin-associated p100/p120; test: E-cadherin immunoprecipitation and p100/p120 immunoblotting, MDCK I cells; type: cell-based
Source text: It has been shown that although some of the p100/p120 in cells is associated with adherens junctions, there is also a large pool that is not complexed with cadherins (at least by immunoprecipitation analysis). […] This procedure served to isolate only that portion of the cellular p100/p120 that associates with the cadherins. Following electrophoresis, and transfer to nitrocellulose, the p100 and p120 present in E-cadherin immunoprecipitates were detected by immunoblotting (Example 9A). […] In both cases, p100/p120 is shown to be present at regions of cell—cell contact.
Whole cell lysates were prepared by rapidly replacing the culture medium in 6.5 mm with hot Laemmli sample buffer, followed by heating at 100° C. for 5 minutes. Immunoprecipitations were carried out at 4° C. Confluent monolayers of cells were washed rapidly with ice cold PBS (containing 0.9 mM CaCl2 and 0.5 mM MgCl2) before addition of 0.5 ml of the appropriate buffer. The filters were then gently scraped, and the lysate was removed and centrifuged at 14000× g. The supernatant was precleared with 10% (w/v) protein A-Sepharose in lysis buffer for 30-60 minutes. Appropriate primary antibodies were added to the lysate, and after 2-3 hours the immunecomplex was isolated, using rabbit anti-mouse secondary antibodies (Jackson Immunoresearch Labs Inc., West Grove, Pa.) and protein A-Sepharose. The beads were washed fives times with lysis buffer, and the bound protein was solubilized in SDS-sample buffer, followed by heating at 100° C. for 5 minutes.
For Immunoprecipitations, Triton lysis buffer or TDS lysis buffer was used. Triton lysis buffer (pH adjusted to 7.4 using NaOH) contained 25 mM Hepes, 1% Triton X-100, 2 mM EDTA, 0.1 M NaCl, 25 mM NaF, 1 mM vanadate, and protease inhibitors. […]
Cell extracts or immunoprecipitates in SDS sample buffer were resolved by SDS-PAGE. […] The filters were then extensively washed in PBS/0.5% Tween-20, and immunoreactive bands were detected by enhanced chemiluminescence (Amersham) following the manufacturers instructions.

CCCC(=O)O[C@@H]1[C@@H](C)[C@@]2(O)[C@@H](C=C(CO)C[C@]3(O)C(=O)C(C)=C[C@@H]23)[C@@H]2C(C)(C)[C@]12OC(=O)CCC [PDB, Phorbol-12,13-dibutyrate]
phosphate content of p100/p120, of that in untreated cells (mean±s.d.) ([1]; 200 nM PDB 30 minutes, seven independent sets of experiments): 58±11%
phosphate in p100/p120 lost ([1]; 200 nM PDB, single experiment (FIG. 7B), normalised for protein): approximately 40%
phosphorylation of E-cadherin-associated p100/p120 ([2]; PDB, Triton lysis buffer, E-cadherin immunoprecipitates): is dephosphorylated
phosphorylation of non-E-cadherin-associated p100/p120 ([2]; PDB, data not shown): subject to dephosphorylation
amount of p100 and p120 present in E-cadherin immunoprecipitates ([2]; after addition of PDB): no obvious change
